Source: patent US20080176813A1, “CARBOCYCLIC NUCLEOSIDES AND PROCESS FOR OBTAINING SUCH” (STICHTING REGA VZW, priority 1999, published 2008)
In brackets after ≈: the same amount, converted by molar mass. Where two headings read alike, the source gives them in different places.

Assays:
[1] = tested on: HSV-1 (KOS); assay: Antiviral activity, virus-induced cytopathogenicity in E6SM cell cultures; assay type: cell-based; conditions: for Selectivity index: E6SM; for IC50: Human alphaherpesvirus 1, read-out: Activity: minimum inhibitory concentration required to reduce virus-induced cytopathogenicity by 50% (IC50), E6SM cell cultures
Protocol: (§1) The anti-herpesvirus activity of D-cyclohexene G and L-cyclohexene G and the respective adenine analogues was determined in human embryonic skin muscle fibroblast (E6SM: HSV-1, HSV-2) and in human embryonic lung (HEL) cells [varicella-zoster virus (VZV), cytomegalovirus (CMV)] (Table I).

[2] = tested on: HSV-1 (TK−/TKf VMW1837); assay: as above; assay type: cell-based; conditions: for Selectivity index: HSV-1 (TK−/TKf VMW1837), E6SM; for IC50: Human alphaherpesvirus 1, E6SM, read-out: Activity: minimum inhibitory concentration required to reduce virus-induced cytopathogenicity by 50% (IC50)
Protocol: as §1

[3] = tested on: HSV-2 (Lyons); assay: as above; assay type: cell-based; conditions: for Selectivity index: E6SM; for IC50: Human alphaherpesvirus 2, read-out: Activity: minimum inhibitory concentration required to reduce virus-induced cytopathogenicity by 50% (IC50), E6SM cell cultures
Protocol: as §1

[4] = tested on: HSV-1 (F); assay: as above; assay type: cell-based; conditions: for Selectivity index: E6SM; for IC50: Human alphaherpesvirus 1, read-out: Activity: minimum inhibitory concentration required to reduce virus-induced cytopathogenicity by 50% (IC50), E6SM cell cultures
Protocol: as §1

[5] = tested on: HSV-1 (TK−KOS ACVf); assay: as above; assay type: cell-based; conditions: for Selectivity index: HSV-1 (TK−KOS ACVf), E6SM; for IC50: Human alphaherpesvirus 1, E6SM, read-out: Activity: minimum inhibitory concentration required to reduce virus-induced cytopathogenicity by 50% (IC50)
Protocol: as §1

[6] = tested on: HSV-2 (G); assay: as above; assay type: cell-based; conditions: for Selectivity index: E6SM; for IC50: Human alphaherpesvirus 2, read-out: Activity: minimum inhibitory concentration required to reduce virus-induced cytopathogenicity by 50% (IC50), E6SM cell cultures
Protocol: as §1

[7] = tested on: HSV-1 (McIntyre); assay: as above; assay type: cell-based; conditions: for Selectivity index: E6SM; for IC50: Human alphaherpesvirus 1, read-out: Activity: minimum inhibitory concentration required to reduce virus-induced cytopathogenicity by 50% (IC50), E6SM cell cultures
Protocol: as §1

[8] = tested on: HSV-2 (196); assay: as above; assay type: cell-based; conditions: for Selectivity index: E6SM; for IC50: Human alphaherpesvirus 2, read-out: Activity: minimum inhibitory concentration required to reduce virus-induced cytopathogenicity by 50% (IC50), E6SM cell cultures
Protocol: as §1

[9] = tested on: HEL; assay: Cytotoxicity, cell growth; conditions: HEL (footnote b)
[10] = tested on: Vero; assay: Cytotoxicity, alteration of cell morphology; assay type: cell-based
[11] = tested on: HeLa, Vero, E6SM, HEL
[12] = tested on: VZV (OKA); assay: microbe, parasite or virus in culture; assay type: cell-based, varicella-zoster virus; conditions: for IC50: Human alphaherpesvirus 3, HEL, read-out: Activity: inhibitory concentration required to reduce virus plaque formation by 50% (IC50); for Selectivity index: VZV (OKA), HEL
Protocol: as §1

[13] = tested on: VZV (TK−07/1); assay: microbe, parasite or virus in culture; assay type: cell-based, varicella-zoster virus; conditions: for IC50: Human alphaherpesvirus 3, HEL, read-out: Activity: inhibitory concentration required to reduce virus plaque formation by 50% (IC50); for Selectivity index: VZV (TK−07/1), HEL
Protocol: as §1

[14] = tested on: VZV (TK−YS/R); assay: microbe, parasite or virus in culture; assay type: cell-based, varicella-zoster virus; conditions: for IC50: Human alphaherpesvirus 3, HEL, read-out: Activity: inhibitory concentration required to reduce virus plaque formation by 50% (IC50); for Selectivity index: VZV (TK−YS/R), HEL
Protocol: as §1

[15] = Cytotoxicity, alteration of cell morphology
Protocol: as §1

[16] = tested on: HeLa; assay: Cytotoxicity, alteration of cell morphology; assay type: cell-based
[17] = tested on: CMV (Davis); assay: Antiviral activity, virus plaque formation in HEL cells; assay type: cell-based, cytomegalovirus; conditions: for Selectivity index: HEL; for IC50: Human betaherpesvirus 5, read-out: Activity: inhibitory concentration required to reduce virus plaque formation by 50% (IC50), HEL cells, virus input 20 PFU
Protocol: as §1

[18] = tested on: CMV (AD 169); assay: as above; assay type: cell-based, cytomegalovirus; conditions: for Selectivity index: HEL; for IC50: Human betaherpesvirus 5, read-out: Activity: inhibitory concentration required to reduce virus plaque formation by 50% (IC50), HEL cells, virus input 20 PFU
Protocol: as §1

[19] = tested on: VZV (YS); assay: as above; assay type: cell-based, varicella-zoster virus; conditions: for Selectivity index: HEL
Protocol: as §1

[20] = tested on: HEL; assay: Cytotoxicity, HEL (footnote c not given); conditions: HEL (footnote c, not defined)
Protocol: as §1

[21] = tested on: VZV and CMV; assay: Potency against VZV and CMV; assay type: cell-based
Protocol: as §1

[22] = Human alphaherpesvirus 3, read-out: Activity: inhibitory concentration required to reduce virus plaque formation by 50% (IC50), VZV (YS), HEL cells, virus input 20 PFU

Compound	IC50 [1] [µg/mL]	IC50 [2] [µg/mL]	IC50 [3] [µg/mL]	IC50 [4] [µg/mL]	IC50 [5] [µg/mL]	IC50 [6] [µg/mL]	IC50 [7] [µg/mL]	IC50 [8] [µg/mL]	Cytotoxic concentration required to reduce cell growth by 50% [9] [µg/mL]	Minimum cytotoxic concentration causing a microscopically detectable alteration of cell morphology [10]	IC50 [12] [µg/mL]	IC50 [13] [µg/mL]	IC50 [14] [µg/mL]	Minimum cytotoxic concentration causing a microscopically detectable alteration of cell morphology ([15]; E8SM)	Minimum cytotoxic concentration causing a microscopically detectable alteration of cell morphology [16]	IC50 [17] [µg/mL]	IC50 [18] [µg/mL]	IC50 [19, 22] [µg/mL]	Cytotoxicity (concentration) [20] [µg/mL]	other results
Nc1ncnc2c1ncn2[C@@H]1C=C[C@H](CO)[C@@H](O)C1 [Compound 36, 9-[(1S,4R,5S)-5-Hydroxy-4-hydroxymethyl-2-cyclohexenyl]adenine]																				melting point: 90 to 92 °C
Nc1nc2c(ncn2[C@H]2C=C[C@@H](CO)[C@H](O)C2)c(=O)[nH]1 [L-cyclohexenyl G, 9-[(1R,4S,5R)-5-Hydroxy-4-hydroxymethyl-2-cyclohexenyl]guanine]	0.003 (≈ 0.0108 µM)	0.01 (≈ 0.0361 µM)	0.07 (≈ 0.252 µM)	0.003 (≈ 0.0108 µM)	1.28 (≈ 4.62 µM)	0.07 (≈ 0.252 µM)	0.004 (≈ 0.0144 µM)	0.1 (≈ 0.361 µM)	>20	400 μg/ml	1.9 (≈ 6.85 µM)	5.8 (≈ 20.9 µM)	6.8 (≈ 24.5 µM)	>18 μg/ml	400 μg/ml	1.7 (≈ 6.13 µM)	1.5 (≈ 5.41 µM)	1.2 (≈ 4.33 µM)	>20	Selectivity index [1]: >5.10^3; Selectivity index [2]: >1.6 10^3; Selectivity index [3]: >2.2 10^2; Selectivity index [4]: >5.10^3; Selectivity index [5]: >12; Selectivity index [6]: >2.2 10^2; Selectivity index [7]: >4.10^3; Selectivity index [8]: >1.6 10^2; melting point: 255 °C (dec.); Toxicity in four different cell lines [11]: did not show toxicity; Selectivity index [12]: >10; Selectivity index [13]: >3; Selectivity index [14]: >3; Selectivity index [17]: >12; Selectivity index [18]: >13; Selectivity index ([19]; VZV (YS)): >16; Potency relative to D-cyclohexene G (fold lower) [21]: about 2 fold
Nc1ccn(C[C@@H](CO)OCP(=O)(O)O)c(=O)n1 [Cidolovir, reference compound]									>50							0.2 (≈ 0.716 µM)	0.08 (≈ 0.287 µM)		>50	
Nc1nc2c(ncn2[C@@H]2C=C[C@H](CO)[C@@H](O)C2)c(=O)[nH]1 [D-cyclohexenyl G, 9-[(1S,4R,5S)-5-hydroxy-4-hydroxymethyl-2-cyclohexenyl]guanine]	0.002 (≈ 0.00721 µM)	0.01 (≈ 0.0361 µM)	0.07 (≈ 0.252 µM)	0.002 (≈ 0.00721 µM)	0.38 (≈ 1.37 µM)	0.05 (≈ 0.18 µM)	0.004 (≈ 0.0144 µM)	0.07 (≈ 0.252 µM)	>20	400 μg/ml	0.64 (≈ 2.31 µM)	2.1 (≈ 7.57 µM)	2.8 (≈ 10.1 µM)	>400 μg/ml	400 μg/ml	0.8 (≈ 2.89 µM)	0.6 (≈ 2.16 µM)	0.49 (≈ 1.77 µM)	11	Selectivity index [1]: >2.10^5; Selectivity index [2]: >4.10^4; Selectivity index [3]: >5.10^3; Selectivity index [4]: >2.10^5; Selectivity index [5]: >1.10^3; Selectivity index [6]: >8.10^3; Selectivity index [7]: >1.10^5; Selectivity index [8]: >5.10^3; Toxicity in four different cell lines [11]: did not show toxicity; Selectivity index [12]: >30; Selectivity index [13]: >10; Selectivity index [14]: >7; Selectivity index [17]: >25; Selectivity index [18]: >30; Selectivity index ([19]; VZV (YS)): >40
Nc1nc2c(ncn2COCCO)c(=O)[nH]1 [Acyclovir, reference compound]	0.01 (≈ 0.0444 µM)	0.07 (≈ 0.311 µM)	0.02 (≈ 0.0888 µM)	0.003 (≈ 0.0133 µM)	9.6 (≈ 42.6 µM)	0.02 (≈ 0.0888 µM)	0.005 (≈ 0.0222 µM)	0.02 (≈ 0.0888 µM)										1.1 (≈ 4.88 µM)		
O=c1[nH]c(=O)n([C@H]2C[C@H](O)[C@@H](CO)O2)cc1/C=C/Br [Brivudin, reference compound]	0.001 (≈ 0.003 µM)	> 80	> 80	0.001 (≈ 0.003 µM)	> 80	> 80	0.001 (≈ 0.003 µM)	> 80	>50	≧400 μg/ml	0.003 (≈ 0.00901 µM)	> 20	> 50	≧400 μg/ml	≧400 μg/ml				>200	IC50 ([19]; Human alphaherpesvirus 3, HEL, read-out: Activity: inhibitory concentration required to reduce virus plaque formation by 50% (IC50)): 0.03 µg/mL (≈ 0.0901 µM)
Nc1nc(O)c2ncn(COC(CO)CO)c2n1 [Ganciclovir, reference compound]	0.001 (≈ 0.00392 µM)	0.01 (≈ 0.0392 µM)	0.001 (≈ 0.00392 µM)	0.001 (≈ 0.00392 µM)	0.48 (≈ 1.88 µM)	0.002 (≈ 0.00784 µM)	0.001 (≈ 0.00392 µM)	0.001 (≈ 0.00392 µM)	>50							0.8 (≈ 3.13 µM)	0.6 (≈ 2.35 µM)		>50	Minimum cytotoxic concentration causing a microscopically detectable alteration of cell morphology ([15]; human): >100 μg/ml
